Laboratory results as given in patent US20230226105A1, “METHODS AND COMPOSITIONS FOR TREATING CANCER” (ReversPAH LLC, priority 2021, published 2023).

How the values were obtained:
[1] = Solubility of crushed and screened TTM particles in water; format: physicochemical; details: particles after 70-mesh screen
From the text: The present inventors undertook a study to determine the size of the TTM particles after a crushing and screening process using a 70-mesh screen that would allow a maximum particle size of 210 micrometers. The size range was as follows: 10% under 13.3 μm; 50% under 44.5 μm; 90% under 122 μm.
This is not unsurprising, as saturation will occur in fluids as a known principle and does illustrate enough fluid is required to be available to dissolve the administered TTM to create optimal bioavailability. Further, larger particles with […] surface area would be expected to remain after the smaller particles dissolve.

[2] = Stability of TTM filled in enteric capsules exposed to stomach acid / simulated stomach acid; format: physicochemical; details: additional enteric coatings applied; after one hour
Experimental: The present inventors have determined that while the designed disintegration properties of an enteric capsule remain stable for 2 hours and the designed enteric capsule may have a diffusion rate below 7.5% in the first two hours, the inventors research confirmed in fact stomach acid or moisture from the stomach does enter the capsule, and the enteric interior capsule walls become wet, thereby subjecting the TTM to the acid or moisture, causing rapid degradation of the enteric capsule from the chemical reaction with the moistened TTM.
The present inventors have determined that the TTM releases H2S gas when a small amount of stomach acid or moisture enters the enteric capsule, not only causing degradation of the TTM, but also the moisture seeping through the capsule causes TTM to release H2S as part of the degradation process, which then comes in contact with the inside of the enteric capsule. This dissolves the enteric capsule from inside the capsule and leads to a catastrophic capsule failure within 15 to 30 minutes.
This is not a preferred solution as the TTM is getting wet inside the capsule and degrading, creating the problem of not knowing how much TTM will be left to be absorbed by the patient after the tablet leaves the stomach. Such a reaction reduces the amount of drug being available to the patient, thereby reducing the drugs intended effect due to less TTM available. […]

[SH-].[SH-].[S]=[Mo]=[S] [TTM, tetrathiomolybdate]
solubility in water ([1]; 60 mg in 300 ml water): dissolved fully over time
solubility in water ([1]; 160 mg in 300 ml of water): did not fully dissolve
TTM leakage from enteric capsule with additional enteric coatings [2]: still leaking out
